# Columns and labels:
# Human FXIIa = molecular target: T1, Human FXIIa (Homo sapiens, UniProt P00748); experiment: Factor XIIa (FXIIa) inhibitory activity, chromogenic substrate assay; type: biochemical; details: Human FXIIa 12.5 nM, Pefachrome XIIa 400 μM, 10 min preincubation
# T1 construct: active coagulation factor XII (FXIIa); purchased Enzyme Research Labs
# T1 sequence (P00748 373-615 limits assumed): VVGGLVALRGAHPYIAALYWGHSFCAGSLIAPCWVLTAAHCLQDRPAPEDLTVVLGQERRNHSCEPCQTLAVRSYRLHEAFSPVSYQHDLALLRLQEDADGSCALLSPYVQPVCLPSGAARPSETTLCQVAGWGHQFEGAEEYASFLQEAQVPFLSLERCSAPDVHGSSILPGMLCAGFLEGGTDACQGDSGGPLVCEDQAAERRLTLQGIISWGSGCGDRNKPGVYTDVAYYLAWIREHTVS
# T1 sequence (P00748 20-372 partner limits assumed): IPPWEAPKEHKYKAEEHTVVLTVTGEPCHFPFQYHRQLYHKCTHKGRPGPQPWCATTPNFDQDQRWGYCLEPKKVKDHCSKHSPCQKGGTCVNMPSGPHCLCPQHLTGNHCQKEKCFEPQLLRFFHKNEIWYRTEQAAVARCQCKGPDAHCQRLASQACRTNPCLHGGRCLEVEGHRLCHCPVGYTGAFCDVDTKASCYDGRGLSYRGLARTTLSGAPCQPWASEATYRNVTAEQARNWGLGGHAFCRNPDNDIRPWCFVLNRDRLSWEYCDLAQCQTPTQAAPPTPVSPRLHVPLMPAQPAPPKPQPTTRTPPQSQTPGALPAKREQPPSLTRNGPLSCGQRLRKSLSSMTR
# Outline: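 Buffer was 0.5× HBSS with 25 mM HEPES pH 7.4 and 0.5× TBS-Tween 0.05%. Enzyme and compound (about 1–100 μM) were preincubated 10 min at room temperature, then Pefachrome XIIa was added at 400 μM final. Substrate cleavage was followed as the rate of A405 change at 37 °C.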
# Human alpha-thrombin = molecular target: T2, Human alpha-thrombin (Homo sapiens, UniProt P00734); experiment: Thrombin counterscreen for selectivity, fluorogenic substrate assay; type: biochemical; details: Human alpha-thrombin 12.5 nM, Boc-Val-Pro-Arg-AMC 20 μM, 10 min preincubation
# T2 construct: Human alpha-thrombin (Enzyme Research Labs); purchased Enzyme Research Labs
# Protocol: Counterscreens for Selectivity:
# In a 96-well white opaque plate, 80 μl of assay buffer was added to each well. Test compounds were added, and serially diluted as above, to generate a concentration range of approximately 1-100 μM. […] 80 μl of this enzyme solution was added to the assay wells. The enzyme/compound mixtures were incubated for 10 minutes at room temperature. Fluorogenic substrate (Boc-Val-Pro-Arg-7-amido-4-methylcoumarin; Sigma) was added to assay wells at a final concentration of 20 μM. The assay plate was spun for 1 minute at 1500 g and then read at 37° C. in a SpectraMax M2 plate reader (λex=380 nm and λem=460 nm). Activity was quantified as the rate of change in fluorescence, which corresponds to the rate of substrate cleavage.
compound,measurement,setting,value
"Nc1nn(C(=O)c2cccc3[nH]c(C4CC4)cc23)c2c1CCCC2 (single isomer, unassigned) [Example 54, (3-amino-4,5,6,7-tetrahydroindazol-1-yl)(2-cyclopropyl-1H-indol-4-yl)methanone]",IC50,Human FXIIa,30 µM
same,IC50,Human alpha-thrombin,> 85 µM
"CCc1cscc1C(=O)n1nc(N)c2c1CCCC2 (single isomer, unassigned) [Example 12, (3-amino-4,5,6,7-tetrahydroindazol-1-yl)(4-ethylthiophen-3-yl)methanone]",IC50,Human FXIIa,> 50 µM
same,IC50,Human alpha-thrombin,> 50 µM
"Nc1c2c(nn1C(=O)[C@H]1CCNc3ccc(Cl)cc31)CC[C@H](O)C2 (single isomer, unassigned) [Example 143, ((5S*)-3-amino-5-hydroxy-4,5,6,7-tetrahydroindazol-2-yl)((4S*)-6-chloro-1,2,3,4-tetrahydroquinolin-4-yl)methanone]",IC50,Human FXIIa,1.3 µM
same,IC50,Human alpha-thrombin,> 80 µM
"Cc1cc2c(C(=O)n3nc4c(c3N)CCCC4)cccc2o1 (single isomer, unassigned) [Example 58, (3-amino-4,5,6,7-tetrahydroindazol-2-yl)(2-methylbenzofuran-4-yl)methanone]",IC50,Human FXIIa,0.06 µM
same,IC50,Human alpha-thrombin,40 µM
"CCC(C)n1ccc2c(C(=O)n3nc4c(c3N)CCCC4)cccc21 (stereo not drawn) [Example 37, (3-amino-4,5,6,7-tetrahydroindazol-2-yl)(1-sec-butyl-1H-indol-4-yl)methanone]",IC50,Human FXIIa,2.5 µM
same,IC50,Human alpha-thrombin,> 75 µM
"Nc1c2c(nn1C(=O)c1cccc3c1ccn3Cc1ccccc1)CCCC2 [Example 30, (3-amino-4,5,6,7-tetrahydroindazol-2-yl)(1-benzyl-1H-indol-4-yl)methanone]",IC50,Human FXIIa,5 µM
same,IC50,Human alpha-thrombin,> 70 µM
"Nc1c2c(nn1C(=O)[C@H]1CCCc3[nH]c(Cl)cc31)CC[C@@H](O)C2 (single isomer, unassigned) [Example 125]",IC50,Human FXIIa,1.4 µM
same,IC50,Human alpha-thrombin,> 100 µM
"CCc1cc2c(C(=O)n3nc4c(c3N)CCCC4)cccc2[nH]1 [Example 50, (3-amino-4,5,6,7-tetrahydroindazol-2-yl)(2-ethyl-1H-indol-4-yl)methanone]",IC50,Human FXIIa,0.01 µM
same,IC50,Human alpha-thrombin,25 µM
"Nc1c2c(nn1C(=O)[C@H]1CCNc3ccc(F)cc31)C[C@@H](O)CC2 (single isomer, unassigned) [Example 183, ((6S*)-3-amino-6-hydroxy-4,5,6,7-tetrahydroindazol-2-yl)((4S*)-6-fluoro-1,2,3,4-tetrahydroquinolin-4-yl)methanone]",IC50,Human FXIIa,0.6 µM
same,IC50,Human alpha-thrombin,> 100 µM
"Cc1cc2c(o1)CCCC2C(=O)n1nc2c(c1N)CCCC2 (stereo not drawn) [Example 85, (3-amino-4,5,6,7-tetrahydro-2H-indazol-2-yl)(2-methyl-4,5,6,7-tetrahydrobenzofuran-4-yl)methanone]",IC50,Human FXIIa,0.4 µM
same,IC50,Human alpha-thrombin,30 µM
"COC1CCc2c(c(N)nn2C(=O)c2cccc3[nH]c(C)cc23)C1 (stereo not drawn) [Example 120, (3-amino-5-methoxy-4,5,6,7-tetrahydro-2H-indazol-1-yl)(2-methyl-1H-indol-4-yl)methanone]",IC50,Human FXIIa,10 µM
same,IC50,Human alpha-thrombin,> 80 µM
"Cc1cc2ccc(C(=O)n3nc4c(c3N)CCCC4)cc2o1 [Example 60, (3-amino-4,5,6,7-tetrahydroindazol-2-yl)(2-methylbenzofuran-6-yl)methanone]",IC50,Human FXIIa,17 µM
same,IC50,Human alpha-thrombin,22 µM
"Cc1cc2c([nH]1)CCCC2C(=O)n1nc2c(c1N)CCCC2 (stereo not drawn) [Example 81, (3-amino-4,5,6,7-tetrahydroindazol-2-yl)(2-methyl-4,5,6,7-tetrahydro-1H-indol-4-yl)methanone]",IC50,Human FXIIa,0.3 µM
same,IC50,Human alpha-thrombin,> 50 µM
"CCn1c(C)c(C(=O)n2nc3c(c2N)CCCC3)c2ccccc21 [Example 45, (3-amino-4,5,6,7-tetrahydroindazol-2-yl)(1-ethyl-2-methyl-1H-indol-3-yl)methanone]",IC50,Human FXIIa,12 µM
same,IC50,Human alpha-thrombin,> 100 µM
"CCc1cc2c(C(=O)n3nc(N)c4c3CCCC4)cccc2n1CC (single isomer, unassigned) [Example 69, (3-amino-4,5,6,7-tetrahydroindazol-1-yl)(1,2-diethyl-1H-indol-4-yl)methanone]",IC50,Human FXIIa,35 µM
same,IC50,Human alpha-thrombin,> 100 µM
"Cc1c2c(nn1C(=O)c1cccc3[nH]ccc13)CCCC2 (single isomer, unassigned) [Example 3, (1H-Indol-4-yl)(3-methyl-4,5,6,7-tetrahydroindazol-2-yl)methanone]",IC50,Human FXIIa,5 µM
same,IC50,Human alpha-thrombin,33 µM
"Cc1cc2c(s1)CCCC2C(=O)n1nc2c(c1N)CCCC2 (stereo not drawn) [Example 86, (3-amino-4,5,6,7-tetrahydroindazol-2-yl)(2-methyl-4,5,6,7-tetrahydrobenzo[b]thiophen-4-yl)methanone]",IC50,Human FXIIa,0.5 µM
same,IC50,Human alpha-thrombin,> 80 µM
"Nc1c2c(nn1C(=O)[C@H]1CCNc3ccc(Cl)cc31)CC[C@@H](O)C2 (single isomer, unassigned) [Example 148, ((5R*)-3-amino-5-hydroxy-4,5,6,7-tetrahydroindazol-2-yl)((4S*)-6-chloro-1,2,3,4-tetrahydroquinolin-4-yl)methanone]",IC50,Human FXIIa,0.04 µM
same,IC50,Human alpha-thrombin,> 80 µM
"Nc1c2c(nn1C(=O)c1c[nH]c3ccccc13)CCCC2 [Example 42, (3-amino-4,5,6,7-tetrahydroindazol-2-yl)(1H-indol-3-yl)methanone]",IC50,Human FXIIa,11 µM
same,IC50,Human alpha-thrombin,> 100 µM
"CCc1ccccc1C(=O)n1nc2c(c1N)CCCC2 [Example 40, (3-amino-4,5,6,7-tetrahydroindazol-2-yl)(2-ethylphenyl)methanone]",IC50,Human FXIIa,15 µM
same,IC50,Human alpha-thrombin,> 100 µM
"Cc1csc(C)c1C(=O)n1nc(N)c2c1CCCC2 (single isomer, unassigned) [Example 17, (3-amino-4,5,6,7-tetrahydroindazol-1-yl)(2,4-dimethylthiophen-3-yl)methanone]",IC50,Human FXIIa,> 100 µM
same,IC50,Human alpha-thrombin,> 100 µM
"Cc1cc2c(C(=O)n3nc(N)c4c3CCC(F)(F)C4)cccc2[nH]1 [Example 122, (3-amino-5,5-difluoro-4,5,6,7-tetrahydro-2H-indazol-1-yl)(2-methyl-1H-indol-4-yl)methanone]",IC50,Human FXIIa,0.7 µM
same,IC50,Human alpha-thrombin,25 µM
"CCc1cscc1C(=O)n1nc2c(c1N)CCCC2 (single isomer, unassigned) [Example 11, (3-Amino-4,5,6,7-tetrahydroindazol-2-yl)(4-ethylthiophen-3-yl)methanone]",IC50,Human FXIIa,0.2 µM
same,IC50,Human alpha-thrombin,> 50 µM
"Cc1cc2c(n1S(C)(=O)=O)CCCC2C(=O)n1nc2c(c1N)CCCC2 (stereo not drawn) [Example 90, (3-amino-4,5,6,7-tetrahydroindazol-2-yl)(2-methyl-1-(methylsulfonyl)-4,5,6,7-tetrahydro-1H-indol-4-yl)methanone]",IC50,Human FXIIa,0.3 µM
same,IC50,Human alpha-thrombin,18 µM
"Nc1nn(C(=O)[C@H]2CCNc3ccccc32)c2c1C[C@@H](O)CC2 (single isomer, unassigned) [Example 171, ((5S*)-3-amino-5-hydroxy-4,5,6,7-tetrahydroindazol-1-yl)((4S*)-1,2,3,4-tetrahydroquinolin-4-yl)methanone]",IC50,Human FXIIa,> 90 µM
same,IC50,Human alpha-thrombin,> 90 µM
"Nc1c2c(nn1C(=O)c1csc3ccccc13)CCCC2 [Example 32, (3-amino-4,5,6,7-tetrahydroindazol-2-yl)(benzo[b]thiophen-3-yl)methanone]",IC50,Human FXIIa,0.15 µM
same,IC50,Human alpha-thrombin,> 50 µM
"CCn1ccc2c(C(=O)n3nc4c(c3N)CCCC4)cccc21 [Example 28, (3-amino-4,5,6,7-tetrahydroindazol-2-yl)(1-ethyl-1H-indol-4-yl)methanone]",IC50,Human FXIIa,0.06 µM
same,IC50,Human alpha-thrombin,36 µM
